Data reported in ChEMBL document CHEMBL5584353, “Design, Synthesis, and Biological Evaluation of Potent EZH2/LSD1 Dual Inhibitors for Prostate Cancer” (J Med Chem, 2024).
Active and inactive are the calls of the source. The rule behind the calls is not given here.

Assays:
[1] = test system: BT-549; assay: Antiproliferative activity against human BT-549 cells assessed as inhibition of cell growth incubated for 6 to 7 days by MTS assay; assay type: functional, cell-based; details: time 6-7 day
[2] = test system: CWR22R; details: Homo sapiens, dose 80.0 mg/kg, route ip, time 31.0 day
[3] = biological target: T1, Lysine-specific histone demethylase 1A (Homo sapiens, UniProt O60341); assay: Inhibition of LSD1 in human 22Rv1 cells assessed as upregulation of H3K4me2 expression at 1 to 5 uM incubated for 5 days by Western blotting analysis; assay type: cell-based; details: dose 1-5 µM, time 5.0 day
[4] = biological target: T2, Histone-lysine N-methyltransferase EZH1 (Homo sapiens, UniProt Q92800); assay: Inhibition of EZH1 (unknown origin)
T2 sequence (Q92800 whole entry): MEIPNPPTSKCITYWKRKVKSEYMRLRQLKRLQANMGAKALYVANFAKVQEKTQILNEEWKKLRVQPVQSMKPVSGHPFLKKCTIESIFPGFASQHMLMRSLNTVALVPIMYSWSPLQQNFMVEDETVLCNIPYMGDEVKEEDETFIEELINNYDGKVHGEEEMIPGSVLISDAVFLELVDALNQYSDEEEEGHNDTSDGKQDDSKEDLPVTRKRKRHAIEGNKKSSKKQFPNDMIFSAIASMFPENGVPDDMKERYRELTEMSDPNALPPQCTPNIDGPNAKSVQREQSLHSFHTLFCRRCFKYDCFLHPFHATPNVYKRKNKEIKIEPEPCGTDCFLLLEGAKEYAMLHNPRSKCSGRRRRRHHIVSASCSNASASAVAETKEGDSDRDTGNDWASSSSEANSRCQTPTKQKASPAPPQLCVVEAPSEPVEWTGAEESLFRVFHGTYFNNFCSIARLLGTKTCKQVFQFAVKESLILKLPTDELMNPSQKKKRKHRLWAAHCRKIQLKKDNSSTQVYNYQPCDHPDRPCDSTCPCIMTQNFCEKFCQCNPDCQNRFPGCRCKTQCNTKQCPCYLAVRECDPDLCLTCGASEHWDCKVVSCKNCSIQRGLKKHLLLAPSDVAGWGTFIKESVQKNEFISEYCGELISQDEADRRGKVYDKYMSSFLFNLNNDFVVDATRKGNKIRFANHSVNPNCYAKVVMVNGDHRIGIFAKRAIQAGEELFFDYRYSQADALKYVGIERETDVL

[5] = test system: CWR22R; assay: Antitumor activity against human 22Rv1 cells xenografted in BALB/c mouse assessed as tumor growth inhibition at 80 mg/kg,ip administrated daily for 31 days relative to control; assay type: functional; details: 22Rv1, 744 h, time 31 day, read-out: TGI
[6] = test system: PC-3; assay: Growth inhibition of human PC-3 cells incubated for 6 to 7 days by MTS assay; assay type: functional; details: time 6-7 day
[7] = test system: LNCaP; assay: Induction of apoptosis in human LNCaP cells at 1 to 10 uM incubated for 5 days by Annexin V-FITC/PI staining based flow cytometric analysis; assay type: functional, cell-based; details: dose 1-10 µM, time 5.0 day
[8] = AUC (0 to infinity) in BALB/c mouse at 50 mg/kg,iv measured upto 24 hrs by HPLC-MS/MS analysis; assay type: ADME, organism-based; details: in vivo
[9] = Metabolic stability in Sprague-Dawley rat hepatocyte assessed as compound remaining at 20 uM incubated for 120 mins by HPLC-MS/MS analysis; assay type: ADME, cell-based; details: hepatocytes, read-out: Stability
[10] = Metabolic stability in Sprague-Dawley rat hepatocyte assessed as compound remaining at 20 uM by HPLC-MS/MS analysis; assay type: ADME, cell-based; details: hepatocytes, read-out: Stability
[11] = biological target: T1, Lysine-specific histone demethylase 1A; assay: Inhibition of LSD1 in human 22Rv1 cells assessed as downregulation of AR-V7 expression at 1 to 20 uM incubated for 48 hrs by Western blotting analysis; assay type: cell-based; details: dose 1-20 µM
[12] = test system: NCI-H292; assay: Antiproliferative activity against human NCI-H292 cells assessed as inhibition of cell growth incubated for 6 to 7 days by MTS assay; assay type: functional, cell-based; details: time 6-7 day
[13] = Half life in BALB/c mouse at 50 mg/kg,po measured upto 24 hrs by HPLC-MS/MS analysis; assay type: ADME, organism-based; details: in vivo
[14] = test system: CWR22R; assay: Antiproliferative activity against human 22Rv1 cells assessed as inhibition of cell growth incubated for 6 to 7 days by MTS assay; assay type: functional, cell-based; details: time 6-7 day
[15] = Metabolic stability in Sprague-Dawley rat hepatocyte assessed as intrinsic clearance at 20 uM incubated for 60 mins by HPLC-MS/MS analysis; assay type: ADME, cell-based; details: hepatocytes, 1 h
[16] = test system: CWR22R; assay: Induction of apoptosis in human 22Rv1 cells at 1 uM incubated for 5 days by Annexin V-FITC/PI staining based flow cytometric analysis (reference value: 8.97 %); assay type: functional; details: time 5 day
[17] = test system: PC-3; assay: Induction of apoptosis in human PC-3 cells at 1 to 10 uM incubated for 5 days by Annexin V-FITC/PI staining based flow cytometric analysis; assay type: functional, cell-based; details: dose 1-10 µM, time 5.0 day
[18] = test system: PC-3; assay: Induction of cell cycle arrest in human PC-3 cells assessed as accumulation of cells at G0/G1 phase incubated for 72 hrs by propidium iodide/RNase staining based flow cytometric analysis; assay type: functional
[19] = test system: CWR22R; assay: Antitumor activity against human 22Rv1 cells xenografted in BALB/c mouse assessed as reduction in Ki67 expression at 80 mg/kg,ip administrated daily for 31 days by immunofluorescence analysis; assay type: functional, organism-based; details: time 31.0 day
[20] = test system: PC-9; assay: Antiproliferative activity against human PC-9 cells assessed as inhibition of cell growth incubated for 6 to 7 days by MTS assay; assay type: functional, cell-based; details: time 6-7 day
[21] = biological target: T1, Lysine-specific histone demethylase 1A; assay: Inhibition of LSD1 in human LNCaP cells assessed as downregulation of AR expression incubated for 48 hrs by Western blotting analysis; assay type: cell-based
[22] = test system: CWR22R; assay: Synergistic antitumor activity against human 22Rv1 cells xenografted in BALB/c mouse assessed as reduction in tumor growth at 80 mg/kg,ip administrated daily for 31 days in presence of enzalutamide relative to control; assay type: functional, organism-based; details: time 31.0 day
[23] = test system: LNCaP; assay: Antimigratory activity in human LNCaP cells assessed as downregulation of N-cadherin expression at 3 to 10 uM incubated for 48 hrs by Western blotting analysis; assay type: functional, cell-based; details: dose 3-10 µM
[24] = Metabolic stability in Sprague-Dawley rat hepatocyte assessed as compound remaining at 20 uM incubated for 60 mins by HPLC-MS/MS analysis; assay type: ADME, cell-based; details: hepatocytes, read-out: Stability
[25] = Inhibition of LSD2 (unknown origin); design: species or system Homo sapiens
[26] = test system: LNCaP; assay: Growth inhibition of human LNCaP cells incubated for 6 to 7 days by MTS assay; assay type: functional; details: time 6-7 day
[27] = biological target: T1, Lysine-specific histone demethylase 1A; assay: Binding affinity to recombinant human LSD1 assessed as increase in thermal stability at 5 uM at 38 to 58 degreeC incubated for 48 hrs by cellular thermal shift assay
[28] = AUC (0 to infinity) in BALB/c mouse at 50 mg/kg,po measured upto 24 hrs by HPLC-MS/MS analysis; assay type: ADME, organism-based; details: in vivo
[29] = test system: CWR22R; assay: Induction of apoptosis in human 22Rv1 cells at 5 uM incubated for 5 days by Annexin V-FITC/PI staining based flow cytometric analysis (reference value: 8.97 %); assay type: functional; details: time 5 day
[30] = test system: LNCaP C4-2B; assay: Antiproliferative activity against human LNCaP C4-2B cells assessed as inhibition of cell growth incubated for 6 to 7 days by MTS assay; assay type: functional, cell-based; details: time 6-7 day
[31] = test system: CWR22R; assay: Antitumor activity against human 22Rv1 cells xenografted in BALB/c mouse assessed as reduction in tumor weight at 80 mg/kg,ip administrated daily for 31 days; assay type: functional, organism-based; details: time 31.0 day

With CCN(c1cc(-c2ccc([C@@H]3C[C@H]3N(CC3CCOCC3)C(=O)OC(C)(C)C)cc2)cc(C(=O)NCc2c(C)cc(C)[nH]c2=O)c1C)C1CCOCC1 (racemic) the Activity [1] was “Active”, the inhibition [2] was “Active” and the inhibition [3] was “Active”. It also gave an IC50 [4] of 2160 nM, an inhibition in vivo at 80 mg/kg [5] of 52.2% and a GI50 [6] of 1040 nM. The Activity [7] was “Active”, the AUC(0-inf) [8] was 126000 ng·h/mL and the remaining at 2 h, 20 µM [9] was 75.8%. The remaining at 20 µM [10] was 100%, the inhibition [11] was “Active” and the Activity [12] was “Active”. For the same compound, the half-life [13] was 3.5 h, the Activity [14] was “Active” and the CLH [15] was 4 µL/min/mg. For the same compound, the Activity [16] was 17.71%, the Activity [17] was “Active” and the Activity [18] was “Dose-Dependent Effect”. The Activity [19] was “Active”, the Activity [20] was “Active” and the inhibition [21] was “Dose-Dependent Effect”. For the same compound, the Activity [22] was “Active”, the Activity [23] was “Active” and the remaining at 1 h, 20 µM [24] was 84.3%. The IC50 [25] was 16600 nM, the GI50 [26] was 1630 nM and the Activity [27] was “Active”. The AUC(0-inf) [28] was 41400 ng·h/mL, the Activity [29] was 30.97% and the Activity [30] was “Active”. The Activity [31] was “Active”.
